Where two headings read alike, the source gives them in different places.

The assay concerns high-fat diet C57BL/6 mice. As for the experimental part: Three-week-old male C57BL/6 mice were purchased from Koatech and housed in the animal facility under controlled conditions of temperature (22±2° C.), humidity (50±5%), and a 12-hour light-dark cycle. Two mice were housed per a cage. […] The mice were maintained on their respective diets for a duration of 17 weeks.
With an interval of one week, the body weight and food intake of each animal were measured. Additionally, at 1, 5, or 8 weeks after the start of the experiment, fasting blood glucose level was measured using an Accu-Check glucose meter.
At 15 weeks after the start of the test, a glucose tolerance test (GTT) was performed, and at 16 weeks, an insulin tolerance test (ITT) was carried out. For the
GTT, after a 12-hour fasting period, a glucose solution of 2 g/kg was administered through intraperitoneal injection, and blood samples were collected from the vein at 0, 20, 60, 90, and 120 minutes to measure blood glucose level. For the ITT, after a 6-hour fasting period, insulin at a dose of 0.75 U/kg was administered through intraperitoneal injection, and blood samples were collected from the vein at 0, 15, 30, 60, and 120 minutes to measure blood glucose level.
The urine volume (ml) was measured by collecting urine from the metabolic cages over a 16-hour period, and the fat mass was measured for each mouse using the EchoMRITM device and expressed as a percentage (%) of body weight.
The insulin concentration was measured using an ELISA kit (Crystal Chem, Ultra-Sensitive Mouse Insulin ELISA Kit), and the alanine aminotransferase (ALT) concentration was measured using an assay kit (IVD Lab Co., ChemiLab GPT (ALT) assay kit). Additionally, the concentration of reactive oxygen species/reactive nitrogen species (ROS/RNS) was measured by using an assay kit (Cell Biolabs, Inc., OxiSelect™ In Vitro ROS/RNS Assay Kit).
After anesthesia, liver tissues were dissected and rapidly frozen in liquid nitrogen. Some tissues were fixed in 10% formalin, and 5 μm-thick tissue slides were prepared from paraffin blocks. The tissues were then stained with H&E (hematoxylin and eosin) and observed under a microscope (Olympus, CKX41) for imaging.
A decrease in insulin receptor in muscles in metabolic disorders reduces the sensitivity to insulin signal, thus limiting the ability to utilize glucose in the muscles to cause sarcopenia. The liver tissue was homogenized in RIPA buffer, and protein quantification was performed using the BCA method. Western blot analysis was then conducted using an anti-insulin receptor-beta (IRβ) antibody.
It is known that a decrease in renal function leads to an increase in the concentration of albumin and a decrease in creatinine in urine. Therefore, the albumin and creatinine levels in urine were measured using mouse albumin ELISA kit (Abcam) and creatinine assay kit (Abcam), respectively, in each test animal. The albumin/creatinine ratio was then calculated. Additionally, 10 μL of blood plasma or 40 mg of homogenized liver tissue were subjected to centrifugation at 10,000 g for 10 minutes, and the supernatant was separated to measure the triglycerides (TG) level in plasma or liver by using a triglyceride measurement kit (Cayman).

On to tyrosine-glutamine [YQ], for which the “fasting blood glucose level” value (HFD+1xYQ vs HFD, 1, 5 or 8 weeks) was “decrease in blood glucose level” and the “fasting blood glucose level” value (HFD+3xYQ vs HFD, 1, 5 or 8 weeks) is “decrease in blood glucose level”. In addition, where the note is “HFD+3xYQ vs HFD”, the body weight entry is given as “lower body weight”. In addition, where the note is “HFD+3xYQ vs HFD”, the fat mass result was “decrease”. In addition, the “blood glucose level, glucose tolerance test (GTT)” value (HFD+3xYQ vs HFD, 15 weeks) is given as “decrease in blood glucose level”. Further, the urine volume entry (HFD+3xYQ vs HFD, 16-hour collection) is given as “decrease”. Besides, under “HFD+3xYQ vs HFD, 16 weeks”, the “blood glucose level, insulin tolerance test (ITT)” value is recorded as “decrease in blood glucose level”. Moreover, the “expression level of IRβ” value (liver tissue, Western blot, HFD+3xYQ vs HFD) was “increase”.
